How the values were obtained:
MEF [1] = experiment: Uptake of Cy-5 labelled PNA (FACS); assay type: cell-based, Mouse
Text: (§1) VEPEP-9 peptides have been used for the delivery of nucleic acid analogues (PNA and morpholino) into different cell lines, including primary cell lines and challenging cell lines. […] Uptake was monitored using fluorescence spectroscopy and following biological response (Cyclin B1 knockdown).
(§2) Fluorescently labelled PNA was visualized in the different cell lines using fluorescence microscopy or FACS sorting (Table 5). In most of the cell lines, the uptake of Cy-5 labelled PNA is more than 60% of the cells.

STEM [2] = experiment: Uptake of Cy-5 labelled PNA (FACS); assay type: cell-based, Mouse
Text: as §1, §2

C2C12 [3] = experiment: Uptake of Cy-5 labelled PNA (FACS); assay type: cell-based, Mouse
Text: as §1, §2

MEF [4] = experiment: Uptake of Cy-5 labelled small peptide (FACS); assay type: cell-based, Mouse
Procedure: (§3) Adherent HS68 fibroblasts, HeLa, PC3, MCF-7, SCK3-Her2, PBMC cell lines (from American Type Culture Collection (ATCC)) were cultured in Dulbecco's Modified Eagle's Medium supplemented with 2 mM glutamine, 1% antibiotics (streptomycin 10,000 μg/ml, penicillin, 10,000 IU/ml) and 10% (w/v) foetal calf serum (FCS), at 37° C. in a humidified atmosphere containing 5% CO2. Stock solutions of VEPEP-9/peptide particles were prepared by complexing 1 μM peptide with VEPEP-9 peptides at a molar ratio of 1/20 for 30 min at 37° C. Lower concentrations of VEPEP-9-carrier/peptide ([…]) were obtained by serial dilution of the stock complexes in PBS, in order to preserve the same VEPEP-9-carrier/peptide ratio. Stock solutions of VEPEP-9/siRNA particles were prepared by complexing 100 nM siRNA with VEPEP-9 peptides at a molar ratio of 1/20 for 30 min at 37° C. Lower concentrations of VEPEP-9/siRNA (from 20 nM to 0.125 nM) were obtained by serial dilution of the stock complexes in PBS, in order to preserve the same VEPEP-9/siRNA ratio. 150,000 cells seeded in a 35 mm dish the day prior transfection, were grown to 60% confluence and overlaid with 200 μl of preformed complexes, incubated for 3-5 min, then 400 μl of DMEM were added. After 30 min. incubation at 37° C., 1 ml of fresh DMEM containing 16% foetal calf serum (FCS) was added in order to reach a final FCS concentration of 10%, without removing the overlay of VEPEP-9/cargo complexes. […] For cdk2 derived peptides, cell proliferation was monitored after 24 and 48 hrs. For siRNA targeting Cyclin B1, Cyclin B1 mRNA level was determined 24 hrs following transduction, using Quantigen (Pommies Inc.). […]
(§4) VEPEP-9a, VEPEP-9c and VEPEP-9f have been used for the delivery of small peptides into different cell lines, including primary cell lines, stem cell lines and challenging cell lines. Cargoes uptake was monitored using fluorescence spectroscopy and FACS analysis. Fluorescently labelled peptides were visualized in the different cell lines using fluorescence microscopy or FACS sorting (Table 4). […]

STEM [5] = experiment: Uptake of Cy-5 labelled small peptide (FACS); assay type: cell-based, Mouse
Procedure: as §3, §4

C2C12 [6] = experiment: Uptake of Cy-5 labelled small peptide (FACS); assay type: cell-based, Mouse
Procedure: as §3, §4

HS-68 [7] = experiment: Uptake of Cy-5 labelled small peptide (FACS); assay type: cell-based, Human
Procedure: (§5) Adherent HS68 fibroblasts, HeLa, PC3, MCF-7, SCK3-Her2, PBMC cell lines (from American Type Culture Collection (ATCC)) were cultured in Dulbecco's Modified Eagle's Medium supplemented with 2 mM glutamine, 1% antibiotics (streptomycin 10,000 μg/ml, penicillin, 10,000 IU/ml) and 10% (w/v) foetal calf serum (FCS), at 37° C. in a humidified atmosphere containing 5% CO2. Stock solutions of VEPEP-9/peptide particles were prepared by complexing 1 μM peptide with VEPEP-9 peptides at a molar ratio of 1/20 for 30 min at 37° C. Lower concentrations of VEPEP-9-carrier/peptide (from 500 nM to 1 μM) were obtained by serial dilution of the stock complexes in PBS, in order to preserve the same VEPEP-9-carrier/peptide ratio. Stock solutions of VEPEP-9/siRNA particles were prepared by complexing 100 nM siRNA with VEPEP-9 peptides at a molar ratio of 1/20 for 30 min at 37° C. Lower concentrations of VEPEP-9/siRNA (from 20 nM to 0.125 nM) were obtained by serial dilution of the stock complexes in PBS, in order to preserve the same VEPEP-9/siRNA ratio. 150,000 cells seeded in a 35 mm dish the day prior transfection, were grown to 60% confluence and overlaid with 200 μl of preformed complexes, incubated for 3-5 min, then 400 μl of DMEM were added. After 30 min. incubation at 37° C., 1 ml of fresh DMEM containing 16% foetal calf serum (FCS) was added in order to reach a final FCS concentration of 10%, without removing the overlay of VEPEP-9/cargo complexes. Cells were returned to the incubator for 24 hrs. For cdk2 derived peptides, cell proliferation was monitored after 24 and 48 hrs. For siRNA targeting Cyclin B1, Cyclin B1 mRNA level was determined 24 hrs following transduction, using Quantigen (Pommies Inc.). Data reported are an average of 3 or 4 distinct experiments.
(§6) VEPEP-9a, VEPEP-9c and VEPEP-9f have been used for the delivery of small peptides into different cell lines, including primary cell lines, stem cell lines and challenging cell lines. Cargoes uptake was monitored using fluorescence spectroscopy and FACS analysis. Fluorescently labelled peptides were visualized in the different cell lines using fluorescence microscopy or FACS sorting (Table 4). In most of the cell lines, the uptake of Cy-5 labelled peptide is more than 70% of the cells.

MT4 [8] = experiment: Uptake of Cy-5 labelled small peptide (FACS); assay type: cell-based, Human
Procedure: as §5, §6

U2OS [9] = experiment: Uptake of Cy-5 labelled small peptide (FACS); assay type: cell-based, Human
Procedure: as §5, §6

Hela [10] = experiment: Uptake of Cy-5 labelled small peptide (FACS); assay type: cell-based, Human
Procedure: as §5, §6

MCF7 [11] = experiment: Uptake of Cy-5 labelled small peptide (FACS); assay type: cell-based, Human
Procedure: as §5, §6

CEM-SS [12] = experiment: Uptake of Cy-5 labelled small peptide (FACS); assay type: cell-based, Human
Procedure: as §5, §6

HepG2 [13] = experiment: Uptake of Cy-5 labelled small peptide (FACS); assay type: cell-based, Human
Procedure: as §5, §6

Jurkat [14] = experiment: Uptake of Cy-5 labelled small peptide (FACS); assay type: cell-based, Human
Procedure: as §5, §6

Peptide (C4) = experiment: Fluorescence titration, VEPEP-9/cargo binding; conditions: cargo peptide (C4)
Procedure: (§7) Fluorescence experiments were performed on a PTI spectrofluorimeter at 25° C. in a NaCl 154 mM buffer. Intrinsic Trp-fluorescence of VEPEP-9 was excited at 290 nm and emission spectrum was recorded between 310 and 400 nm, with a spectral band-pass of 2 and 8 nm for excitation and emission, respectively. FITC- or CY5-fluorescence of labelled-peptide or Oligonucleotide were excited at 492 nm and emission recorded between 500 and 580 nm. For VEPEP-9/peptide interaction, 0.5 μM of FITC-labelled peptide was titrated by increasing concentrations of VEPEP-9. For VEPEP-9/oligonucleotide interaction, 200 nM of FITC or CY5-labelled oligodeoxynucleotide (ODN) was titrated by increasing concentrations of VEPEP-9. All measurements were corrected for the dilution and curve fitting were performed by using Grafit software (Erithacus).
(§8) VEPEP-9 peptide form stable complexes with peptides and ODN. The binding of cargos to VEPEP-9 was monitored by fluorescence spectroscopy using the both intrinsic Trp group of VEPEP-9 (3 to 5 Trp-residues) and extrinsic fluorescently labelled cargoes (using Cy3, Cy5 or FITC). Curve fitting reveal that VEPEP-9 strongly binds the different cargoes with dissociation constant in the nanomolar range (Tables 1 and 2 and FIG. 2).
(§9) VEPEP-9 peptides form stable particles with different cargoes including peptide, siRNA, PNA and small aromatic (FIG. 2). The dissociation constant for peptide, siRNA, PNA and small hydrophobic molecule ranges between 10-100 nM, 5-50 nM, 5-50 nM and 0.02 to 0.2 μM, respectively, depending on the nature of the dyes and of the cargoes.

PNA (15 mer -PNA) = experiment: Fluorescence titration, VEPEP-9/cargo binding; conditions: cargo PNA (15 mer)
Procedure: as §7, §8, §9

siRNA = experiment: Fluorescence titration, VEPEP-9/cargo binding; conditions: cargo siRNA
Procedure: as §7, §8, §9

[15] = Fluorescence titration, VEPEP-9/cargo binding; conditions: cargo SHM
Procedure: as §7, §8, §9

[16] = Fluorescence titration, VEPEP-9/SHM binding
Procedure: as §7
Binding of small molecule cargoes has been investigated in detailed depending on the nature of the SHM. Several hydrophobic molecules have been used (Daunomycin, Paclitaxel, doxorubicin, porphyrin), as well as charged molecules (nucleotide, nucleoside and fluorescent dyes).

cultured cells = experiment: Cell cycle progression / cyclin B1 levels in cultured cells; assay type: cell-based; conditions: carrier alone (200 μM)
HS-68 [17] = experiment: Uptake of Cy-5 labelled PNA (FACS); assay type: cell-based, Human
Text: as §1, §2

MT4 [18] = experiment: Uptake of Cy-5 labelled PNA (FACS); assay type: cell-based, Human
Text: as §1, §2

U2OS [19] = experiment: Uptake of Cy-5 labelled PNA (FACS); assay type: cell-based, Human
Text: as §1, §2

Hela [20] = experiment: Uptake of Cy-5 labelled PNA (FACS); assay type: cell-based, Human
Text: as §1, §2

MCF7 [21] = experiment: Uptake of Cy-5 labelled PNA (FACS); assay type: cell-based, Human
Text: as §1, §2

CEM-SS [22] = experiment: Uptake of Cy-5 labelled PNA (FACS); assay type: cell-based, Human
Text: as §1, §2

HepG2 [23] = experiment: Uptake of Cy-5 labelled PNA (FACS); assay type: cell-based, Human
Text: as §1, §2

Jurkat [24] = experiment: Uptake of Cy-5 labelled PNA (FACS); assay type: cell-based, Human
Text: as §1, §2

Binding (Peptide (C4)): yes
Binding (PNA (15 mer -PNA)): Yes
Kd (PNA (15 mer -PNA)): > 50 nM
Binding (siRNA): yes
Kd (siRNA): > 200 nM
Binding [15]: Yes
Kd [15]: 20 to 100 nM
Binding ([16]; cargo AZT): No
Binding ([16]; cargo Doxorubicin): yes
Binding ([16]; cargo FAM-guanosine): yes
Kd ([16]; cargo FAM-guanosine): 800 nM
Binding ([16]; cargo porphyrin): yes
Kd ([16]; cargo porphyrin): 110 nM
Substance: X1WWRWWAPWARSWWR [VEPEP-9f, X1 is beta-A or S]
Efficiency (uptake of Cy-5 labelled PNA) (MEF [1]): 74%
Efficiency (uptake of Cy-5 labelled PNA) (STEM [2]): 88%
Efficiency (uptake of Cy-5 labelled PNA) (C2C12 [3]): 69%
Efficiency (uptake of Cy-5 labelled small peptide) (MEF [4]): 75%
Efficiency (uptake of Cy-5 labelled small peptide) (STEM [5]): 76%
Efficiency (uptake of Cy-5 labelled small peptide) (C2C12 [6]): 57%
Efficiency (uptake of Cy-5 labelled small peptide) (HS-68 [7]): 67%
Efficiency (uptake of Cy-5 labelled small peptide) (MT4 [8]): 56%
Efficiency (uptake of Cy-5 labelled small peptide) (U2OS [9]): 57%
Efficiency (uptake of Cy-5 labelled small peptide) (Hela [10]): 60%
Efficiency (uptake of Cy-5 labelled small peptide) (MCF7 [11]): 89%
Efficiency (uptake of Cy-5 labelled small peptide) (CEM-SS [12]): 87%
Efficiency (uptake of Cy-5 labelled small peptide) (HepG2 [13]): 48%
Efficiency (uptake of Cy-5 labelled small peptide) (Jurkat [14]): 65%
effect on cell cycle progression (cultured cells): no effect
Efficiency (uptake of Cy-5 labelled PNA) (HS-68 [17]): 71%
Efficiency (uptake of Cy-5 labelled PNA) (MT4 [18]): 67%
Efficiency (uptake of Cy-5 labelled PNA) (U2OS [19]): 89%
Efficiency (uptake of Cy-5 labelled PNA) (Hela [20]): 78%
Efficiency (uptake of Cy-5 labelled PNA) (MCF7 [21]): 83%
Efficiency (uptake of Cy-5 labelled PNA) (CEM-SS [22]): 78%
Efficiency (uptake of Cy-5 labelled PNA) (HepG2 [23]): 71%
Efficiency (uptake of Cy-5 labelled PNA) (Jurkat [24]): 81%

From patent publication US10421784B2, “Cell penetrating peptides for intracellular delivery of molecules” (AADIGEN, LLC, priority 2012, dated 2019)
